From patent US9073961B2, “Substitution derivatives of N6 -benzyladenosine-5′-monophosphate, methods of preparation thereof, use thereof as medicaments, and therapeutic preparations containing these compounds” (UNIVERZITA PALACKEHO V OLOMOUCI, priority 2010, dated 2015)

Tests used:
MCF-7 (breast carcinoma) = assay: Calcein AM cytotoxicity assay, MCF7; type: cell-based; conditions: 72 hours incubation
From the text: (§1) Because toxic compounds negatively influence metabolic processes in cells, many standard cytotoxicity assays are based on measurement of metabolisation rate of various artificial substrates. Resulting product is then quantified e.g. by means of spectrometry. The assays can be easily modified for use in 96-well plates. For evaluation of cytotoxic effect of the novel substituted 9-substituted cytokinin derivatives of this invention, a microtiter assay based on quantification of metabolisation of Calcein AM was used. The assay is widely used in drug screening programs and in chemosensitivity testing. In the living cells, Calcein AM is enzymatically hydrolysed and accumulation of resulting calcein is manifested by green fluorescence.
(§2) In the routine screening the following cell lines have been used: CEM (T-lymphoblastoid leukemia), HL-60 (promyelocytic leukemia), K-562 (human erythroleukemia), MCF-7 (breast carcinoma), HOS (human osteogenic sarcoma), and G-361 (human malignant melanoma). Normal human fibroblasts BJ were used as a control for routine screening of the compounds. The cells were kept in Nunc/Corning 80 cm^2 plastic bottles and grown in cell culture medium (DMEM containing 5 g/l glucose, 2 mM glutamine, 100 U/ml penicilline, 100 μg/ml streptomycine, 10% fetal bovine serum and sodium hydrogencarbonate), the compounds were prepared according to the procedure of the present invention.
(§3) The cell suspensions were prepared and diluted according to the particular cell type and the expected target cell density (2.500-30.000 cells per well based on cell growth characteristics) and pippetted (80 μl) into 96-well plates. Inoculates were allowed a pre-incubation period of 24 hours at 37° C. and 5% CO2 for stabilisation. Tested compound was added in total volume of 20 μl of water at time zero. Usually, test compound was evaluated at six 3-fold dilutions. In routine testing, the highest concentration tested was 166.7 μM. All drug concentrations were tested in triplicates. Incubations of cells with the test compounds lasted for 72 hours at 37° C., in 5% CO2 atmosphere and 100% humidity. At the end of incubation period Calcein AM in PBS was added into final concentration of 1 μg/ml. After another 1 hour of incubation fluorescence (FD) was measured with the Labsystem FIA Reader Fluoroscan Ascent (Microsystems). Tumor cell survival (TCS) was estimated using the following equation: […]=(FDdrug exposed well/FDcontrol well)×100%. The GI50 value, the drug concentration causing 50% reduction of esterase activity, was calculated from the obtained dose response curves (FIG. 1).
(§4) Cytoxicity of novel compounds was tested on panel of cell lines of different histogenetic and species origin (Table 3). […] The effective novel derivatives killed tumour cells in concentrations close to 0.1-50 μM.

[1] = tested on: HL-60 (promyelocytic leukemia); assay: Calcein AM cytotoxicity assay, HL60; type: cell-based, human; conditions: 72 hours incubation
From the text: as §1, §2, §3, §4

[2] = tested on: cytokinin-dependent tobacco callus Nicotiana tabacum L. cv. Wisconsin 38; assay: Growth of cytokinin-dependent tobacco callus; type: cell-based; conditions: for Activity (%) [10^−5 mol · l^−1 KR = 100%]: at concentration with highest activity, relative to control cytokinin; for Concentration with highest activity: tobacco callus fresh weight after four weeks
Protocol: Cytokinin effect of newly prepared derivatives was tested using cytokinin-dependent tobacco callus. The cytokinin-dependent tobacco callus Nicotiana tabacum L. cv. Wisconsin 38 was maintained at 25° C. in darkness on modified MS medium, containing per 1 liter: 4 μmol of nicotinic acid, 2.4 μmol of pyridoxine hydrochloride, 1.2 μmol of thiamine, 26.6 μmol of glycine, 1.37 μmol of glutamine, 1.8 μmol of myo-inositol, 30 g of sucrose, 8 g of agar, 5.37 μmol of NAA and 0.5 μmol of the compound tested. Subcultivation was carried out every three weeks. Fourteen days before the bioassay, the callus tissue was transferred to the media without 6-benzylaminopurine. The biological activity was determined from the increase of the fresh callus weight after four weeks of cultivation. Five replicates were prepared for each concentration of the compound tested and the entire test was repeated twice. […] The compounds to be tested were dissolved in dimethylsulfoxide (DMSO) and the solution brought up to 10^−3 M with distilled water. […] The stimulatory activity was calculated from the dose-dependent fresh weight callus growth curves.
From the obtained data, the concentration with the highest activity was selected for each compound tested. Relative activity of the compound at this concentration was calculated (Table 5). […]

[3] = tested on: K-562 (human erythroleukemia); assay: Calcein AM cytotoxicity assay, K-562; type: cell-based; conditions: 72 hours incubation
From the text: as §1, §2, §3, §4

[4] = tested on: Normal human fibroblasts BJ; assay: Calcein AM cytotoxicity assay, BJ; type: cell-based; conditions: 72 hours incubation
From the text: as §1, §2, §3, §4

[5] = tested on: HOS (human osteogenic sarcoma); assay: Calcein AM cytotoxicity assay, HOS; type: cell-based; conditions: 72 hours incubation
From the text: as §1, §2, §3, §4

[6] = tested on: CEM (T-lymphoblastoid leukemia); assay: Calcein AM cytotoxicity assay, CEM; type: cell-based; conditions: 72 hours incubation, Calcein AM
From the text: as §1, §2, §3, §4

Row | SMILES | GI50 (MCF-7 (breast carcinoma)) [µM] | GI50 [1] [µM] | Activity (%) [10^−5 mol · l^−1 KR = 100%] [2] [%] | Concentration with highest activity [2] | GI50 [3] [µM] | GI50 [4] [µM] | GI50 [5] [µM] | GI50 [6] [µM]
1 | O=P(O)(O)OC[C@H]1O[C@@H](n2cnc3c(NCc4ccc(F)cc4Cl)ncnc32)[C@H](O)[C@@H]1O [2-chloro-4-fluorobenzylamino, 6-(2-chloro-4-fluorobenzylamino)purine riboside-5′-monophosphate] | > 167 | 9 | 108 ± 4 | 10^−5 mol · l^−1 | 11.7 | > 167 | > 167 | 20.9
2 | O=P(O)(O)OC[C@H]1O[C@@H](n2cnc3c(NCc4ccccc4Br)ncnc32)[C@H](O)[C@@H]1O [Compound 7, 6-(2-bromobenzylamino)purine riboside-5′-monophosphate] | > 167 | 6.6 | 100 ± 4 | 10^−5 mol · l^−1 | 10 | > 167 | > 167 | 12.3
3 | O=P(O)(O)OC[C@H]1O[C@@H](n2cnc3c(NCc4cccc(Br)c4)ncnc32)[C@H](O)[C@@H]1O [Compound 8, 6-(3-bromoobenzylamino)purine riboside-5′-monophosphate] | > 167 | 8 | 102 ± 11 | 10^−6 mol · l^−1 | 19.7 | > 167 | > 167 | 5
4 | O=P(O)(O)OC[C@H]1O[C@@H](n2cnc3c(NCc4ccc(Br)cc4)ncnc32)[C@H](O)[C@@H]1O [Compound 9, 6-(4-bromobenzylamino)purine riboside-5′-monophosphate] | > 167 | 47.7 |  |  | 68.2 | > 167 | > 167 | 20.6
5 | O=P(O)(O)OC[C@H]1O[C@@H](n2cnc3c(NCc4ccc(Cl)cc4Cl)ncnc32)[C@H](O)[C@@H]1O [Compound 24, 6-(2,4-dichlorobenzylamino)purine riboside-5′-monophosphate] | 127 | 96.3 |  |  | 85.7 | > 167 | > 167 | 86.7
6 | O=P(O)(O)OC[C@H]1O[C@@H](n2cnc3c(NCc4ccc(Cl)c(Cl)c4)ncnc32)[C@H](O)[C@@H]1O [Compound 25, 6-(3,4-dichlorobenzylamino)purine riboside-5-monophosphate] | 88.8 | 1.1 |  |  | 6.5 | > 167 | > 167 | 3
7 | COc1ccc(CNc2ncnc3c2ncn3[C@@H]2O[C@H](COP(=O)(O)O)[C@@H](O)[C@H]2O)cc1O [Compound 30, 6-(3-hydroxy-4-methoxybenzylamino)purine riboside-5′-monophosphate] | > 167 | 68.9 |  |  | > 167 | > 167 | > 167 | 79.3
8 | COc1cccc(CNc2ncnc3c2ncn3[C@@H]2O[C@H](COP(=O)(O)O)[C@@H](O)[C@H]2O)c1OC [Compound 31, 6-(2,3-dimethoxybenzylamino)purine riboside-5′-monophosphate] | > 167 | 109 |  |  | > 167 | > 167 | > 167 | > 167
9 | COc1ccc(CNc2ncnc3c2ncn3[C@@H]2O[C@H](COP(=O)(O)O)[C@@H](O)[C@H]2O)c(OC)c1 [Compound 32, 6-(2,4-dimethoxybenzylamino)purine riboside-5′-monophosphate] | > 167 | 39 |  |  | > 167 | > 167 | > 167 | > 167
10 | COc1cc(CNc2ncnc3c2ncn3[C@@H]2O[C@H](COP(=O)(O)O)[C@@H](O)[C@H]2O)cc(OC)c1 [Compound 34, 6-(3,5-dimethoxybenzylamino)purine riboside-5′-monophosphate] | > 167 | 18.8 |  |  | > 167 | > 167 | > 167 | 
11 | O=P(O)(O)OC[C@H]1O[C@@H](n2cnc3c(NCc4ccc(F)cc4F)ncnc32)[C@H](O)[C@@H]1O [Compound 36, 6-(2,4-difluorobenzylamino)purine riboside-5-monophosphate] | > 167 | 3.4 |  |  | 7.4 | > 167 | > 167 | 7.1
12 | O=P(O)(O)OC[C@H]1O[C@@H](n2cnc3c(NCc4cc(F)cc(F)c4)ncnc32)[C@H](O)[C@@H]1O [Compound 37, 6-(3,5-difluorobenzylamino)purine riboside-5′-monophosphate] | > 167 | 9.1 | 105 ± 3 | 10^−6 mol · l^−1 | > 167 | > 167 | > 167 | 24.5
13 | O=P(O)(O)OC[C@H]1O[C@@H](n2cnc3c(NCc4ccc(F)c(F)c4F)ncnc32)[C@H](O)[C@@H]1O [Compound 38, 6-(2,3,4-trifluorobenzylamino)purine riboside-5′-monophosphate] | > 167 | 13 |  |  | > 167 | > 167 | > 167 | 58.2
14 | O=P(O)(O)OC[C@H]1O[C@@H](n2cnc3c(NCc4cc(F)c(F)cc4F)ncnc32)[C@H](O)[C@@H]1O [Compound 39, 6-(2,4,5-trifluorobenzylamino)purine riboside-5′-monophosphate] |  |  | 105 ± 3 | 10^−5 mol · l^−1 |  |  |  | 
15 | O=P(O)(O)OC[C@H]1O[C@@H](n2cnc3c(NCc4c(F)ccc(F)c4F)ncnc32)[C@H](O)[C@@H]1O [Compound 40, 6-(2,3,6-trifluorobenzylamino)purine riboside-5′-monophosphate] | > 167 | 13 |  |  | > 167 | > 167 | > 167 | 
16 | O=P(O)(O)OC[C@H]1O[C@@H](n2cnc3c(NCc4ccc(F)c(Cl)c4)ncnc32)[C@H](O)[C@@H]1O [Compound 41, 6-(3-chloro-4-fluorobenzylamino)purine riboside-5′-monophosphate] | > 167 | 3.5 | 107 ± 4 | 10^−6 mol · l^−1 | 4.1 | > 167 | > 167 | 3.4
